In patent US5175172A, “Method of alleviating AIDS symptoms and compositions therefor” (priority 1988, dated 1992):
Several values for one entry are separate records, joined by “and”; a condition that tells them apart may be missing. Equal values may be shown once. Read-outs that look alike come from different tables or passages of the source.

Legend:
T4 = tested on: T4
Experimental: Seven Month Follow-Up of Tacrine (THA) vs Zidovudine (AZT) in 72 HIV Infected Patients
Comparison of serological and clinical status of HIV infected patients after THA versus AZT treatment in an open study.
[…] (61 males, 11 females) with HIV infection ([…], 10 stages II and III), received either AZT (46 patients 600-1200 mg./day) or THA (26 patients 150-250 mg/day). In cases of intolerance or inefficacy, treatment was discontinued and patients were treated by the other drug.

Agp 24 = assay: Seven month follow-up of THA vs AZT in HIV infected patients (open study): Agp 24; assay type: in vivo
Description: Expressed in mean variation (%) in comparison with Do values.

HIV [1] = assay: Seven month follow-up of THA vs AZT in HIV infected patients (open study): clinical results; assay type: in vivo, human
Experimental: (§8) 70 patients (61 males, 11 females) with HIV infection (69 stage IV, 10 stages II and III), received either AZT (46 patients 600-1200 mg./day) or THA (26 patients 150-250 mg/day).
(§9) 13 patients were treated by THA alone, 20 by AZT alone, 26 by AZT then THA and 13 by THA then AZT. Mean duration of treatment was 5.8 months for 53 courses of AZT 5.4 months for 52 courses of THA.

[2] = Seven month follow-up of THA vs AZT in HIV infected patients (open study): withdrawals for toxicity; assay type: in vivo, human; conditions: AZT n = 52; THA n = 51
Experimental: as §8, §9

HIV [3] = conditions: for Antigenemia, evolution (%) in comparison with D0: D0 value 462 pg/ml
Experimental: (§1) Seven Month Follow-Up Study of Tacrine Administration to 26 HIV Infected Patients
(§2) Tacrine was supplied as capsules containing 63.5 mg. Tacrine hydrochloride,monohydrate corresponding to 50 mg. base. An inert excipient (lactose) was added to fill white hard size 3 gelatin capsules.
(§3) For the first 15 days, patients received 2 capsules a day (i.e., 1 capsule at 8 A.M. and 1 at 8 P.M.). After the first 15 days, if nausea had not occurred or had ceased, the dosage was augmented by 1 capsule (i.e., 1 capsule at 8 A.M., 1 at lunch time and 1 at 8 P.M.). After this second period of 15 days, if nausea had not occurred or had ceased, the dosage was augmented by a further 1 capsule, to reach 4 capsules a day (i.e., 1 capsule at 8 A.M., 1 at lunch time, 1 at 4 P.M. and 1 at 8 P.M.).
(§4) D0 --Inclusion Examination--Serological, hematological and clinical determinations. Patients are supplied with capsules of Tacrine for 15 days.
(§5) D15 --First Control after 15 Days Treatment--Serological, hematological and clinical determinations. Patients are supplied with capsules of Tacrine for 15 days.
(§6) D1mth --Second control after 1 month of Treatment--Serological, hematological and clinical determinations. Patients are supplied with capsules of Tacrine for 1 month.
(§7) D'n'mth --Same as D1mth. Following examinations of one month interval each.

T4 Lymphocytes = conditions: D0 value 203/mm^3
Experimental: as §1, §2, §3, §4, §5, §6, §7

[4] = Seven month follow-up of Tacrine in 26 HIV infected patients: tolerability, side effects and withdrawals; assay type: in vivo, human
Experimental: Tacrine was supplied as capsules containing 63.5 mg. Tacrine hydrochloride,monohydrate corresponding to 50 mg. base.
D0 --Inclusion Examination--Serological, hematological and clinical determinations.
as §7
Their mean age was 40.3 (range 27-65).
Mean duration of treatment was 6 months.

[5] = target: T1, reverse transcriptase of the HIV 1 virus (Human immunodeficiency virus type 1 group M subtype B, UniProt P04585); assay: Action on reverse transcriptase of the HIV 1 virus (3H thymidine triphosphate incorporation); assay type: biochemical
T1 construct: Action on Reverse Transcriptase of the HIV 1 Virus; made in house; host or cells: HIV 1 virus grown on CEM cells; virus pelleted from the culture medium and resuspended in Triton X 100 (viral lysate, not recombinant)
Experimental: For the direct study of the action of the product on the activity of the reverse transcriptase, the virus was concentrated by ultracentrifugation and the plugs of virus removed from the culture medium are resuspended in a solution containing 0.15% Triton X 100, 0.05M Tris at pH 7.8 and 20% glycerol.
These preparations, frozen at -20° C., are active for several months and served for the direct measurement of the products on enzymatic activity.
The THA is diluted as stated above and added to 40 μl of the incubation solution under a volume of 5.5 μl before the addition of 10 μl of the enzymatic preparation. Initial concentrations of the product are thus 10 times more concentrated than the final dilution in the presence of the enzyme. The controls received 5.5 μl of water.

[6] = target: polymerase of Micrococcus Lysodecticus; conditions: read-out: Di50 for the inhibition of the DNA polymerase; specificity test, same concentrations as for reverse transcriptase
Description: In order to evaluate the specificity of THA, the effects on the reverse transcriptase and on a non-viral DNA polymerase, namely the polymerase of Micrococcus Lysodecticus have been compared at the same concentrations.

CEM cells = tested on: CEM cells
Experimental: The CEM lines utilized for the multiplication of the virus, as well as for the inhibition studies, was provided by Service of Francoise Barre-Sinoussi, at the Institute Pasteur. The culture medium is RPMI 1640, supplemented with 10% fetal calf serum, 2% glutamine and 1% antibiotics. The cells are counted and subcultured in a culture flask every 3 or 4 days. In certain cases, the fungicide amphotericin B is added in dosages of 5 μg./ml.
The HIV 1 virus was provided from the same source and grown on CEM cells in the culture described above. The infection is created with a supernatant on the culture at a dose level of 50,000 cpm per 10^6 cells.
Healthy CEM cells were infected with HIV 1 virus at 40,000 cpm per 10^6 cells. After 7 days of infection at 37° C. an equal quantity of healthy cells are added, non-absorbed viruses removed and 5.10^5 cells/ml. and 5 ml. of medium are brought into the presence of THA.
During 5 or 6 days, the cells are counted and the supernatant of the culture is recovered for evaluation of the reverse transcriptase activity, that is to say, to determine the production of HIV 1 virus liberated by the cells. The cells are subculture into fresh medium containing the inhibitor at different concentrations.

[7] = Hepatotoxicity on administration of Tacrine (prior reports and applicants' studies); assay type: in vivo; conditions: more recent studies by Applicants
HIV 1 virus = conditions: 5 μM and 10 μM THA
Experimental: The HIV 1 virus was provided from the same source and grown on CEM cells in the culture described above. The infection is created with a supernatant on the culture at a dose level of 50,000 cpm per 10^6 cells. The infection is followed by the evaluation of the activity of the reverse transcriptase which can reach a level of 10^6 cpm/ml. at the end of the culture. […]
35 μl of an incubation medium are made up of a solution of 0.07M magnesium chloride, 0.028M potassium chloride, 0.07M Tris at pH 7.8, 1.4 mM DTT and contain 5 μCi of ^3 H thymidine triphosphate, 2.5 μl of poly A are added to a unit of OD/ml. and 2.5 μl of oligo dT 12-18 to 1 unit of O.D/ml. and finally 10 μl of the plug resuspension from the ultracentrifugation or a control enzymatic preparation. […] The incorporated radioactivity which is as precipitated as an acid insoluble form was washed on Millipore HA 0.45 micron filters and counted by liquid scintillation counters. […]

[8] = reported by Byrne and Acie, British Med. J. 298 (1989) 845; cited from earlier work
[9] = during the first month of treatment
[10] = within the first month of treatment

## Cc1cn([C@H]2C[C@H](N=[N+]=[N-])[C@@H](CO)O2)c(=O)[nH]c1=O [AZT]
T4; D1mth
  T4 /mm^3, mean variation (%) in comparison with D0: +0.5%
T4; D2mth
  T4 /mm^3, mean variation (%) in comparison with D0: +8.1%
T4; D3mth
  T4 /mm^3, mean variation (%) in comparison with D0: +18.5%
T4; D4mth
  T4 /mm^3, mean variation (%) in comparison with D0: +8.8%
T4; D5mth
  T4 /mm^3, mean variation (%) in comparison with D0: +17.2%
T4; D6mth
  T4 /mm^3, mean variation (%) in comparison with D0: -40%
T4; D7mth
  T4 /mm^3, mean variation (%) in comparison with D0: -40%
Agp 24; D1mth
  Agp 24, mean variation (%) in comparison with D0: -20.6%
Agp 24; D2mth
  Agp 24, mean variation (%) in comparison with D0: +3.4%
Agp 24; D3mth
  Agp 24, mean variation (%) in comparison with D0: -1%
Agp 24; D4mth
  Agp 24, mean variation (%) in comparison with D0: +55.6%
Agp 24; D5mth
  Agp 24, mean variation (%) in comparison with D0: +36.5%
Agp 24; D6mth
  Agp 24, mean variation (%) in comparison with D0: +173%
Agp 24; D7mth
  Agp 24, mean variation (%) in comparison with D0: +142%
HIV [1]; AZT n = 52, THA n = 51
  Deaths, number: 7
  Deaths, percent: 12%
  Kaposi Emergence, number: 3
  Kaposi Emergence, percent: 5%
  Opportunistic Infections, number: 27
  Opportunistic Infections, percent: 46%
[2]
  Withdrawals for toxicity, number: 29
  Withdrawals for toxicity, percent: 49%

## Nc1c2c(nc3ccccc13)CCCC2 [Tacrine, 9-Amino-1,2,3,4-tetrahydroacridine]
HIV [3]; D1mth
  Antigenemia, evolution (%) in comparison with D0: -35.3%
HIV [3]; D2mth
  Antigenemia, evolution (%) in comparison with D0: -22.1%
HIV [3]; D3mth
  Antigenemia, evolution (%) in comparison with D0: -24%
HIV [3]; D4mth
  Antigenemia, evolution (%) in comparison with D0: -17%
HIV [3]; D5mth
  Antigenemia, evolution (%) in comparison with D0: -19.4%
HIV [3]; D6mth
  Antigenemia, evolution (%) in comparison with D0: -54%
HIV [3]; D7mth
  Antigenemia, evolution (%) in comparison with D0: -51.3%
HIV [3]; D15
  Antigenemia, evolution (%) in comparison with D0: -38.5%
HIV [3]; in 4 patients
  Opportunistic infections, cases: 4 cases
HIV [3]; number of cases, 26 patients
  Kaposi sarcoma emergence: 2
  Opportunistic infections: pneumocystosis: 1
  Opportunistic infections: toxoplasmosis: 1
HIV [3]; seven month follow-up
  Opportunistic infections, patients: 4/26
HIV [3]; seven month follow-up, 26 patients
  Mortality: none
T4 Lymphocytes; D1mth
  T4 Lymphocytes counts, evolution (%) in comparison with D0: +16.7%
T4 Lymphocytes; D2mth
  T4 Lymphocytes counts, evolution (%) in comparison with D0: +23.9%
T4 Lymphocytes; D3mth
  T4 Lymphocytes counts, evolution (%) in comparison with D0: +19.5%
T4 Lymphocytes; D4mth
  T4 Lymphocytes counts, evolution (%) in comparison with D0: +28%
T4 Lymphocytes; D5mth
  T4 Lymphocytes counts, evolution (%) in comparison with D0: +26.6%
T4 Lymphocytes; D6mth
  T4 Lymphocytes counts, evolution (%) in comparison with D0: +8.4%
T4 Lymphocytes; D7mth
  T4 Lymphocytes counts, evolution (%) in comparison with D0: +25.6%
T4 Lymphocytes; D15
  T4 Lymphocytes counts, evolution (%) in comparison with D0: +5%
[4]; 26 patients
  Hematotoxicity: decrease of hematological counts: 0%
  Hepatotoxicity: transaminase elevation: 0%
[4]; after the first month
  Nausea, cases: 2 cases
  Nausea, incidence: 10%
[4]; [9]
  Nausea, cases: 9 cases
  Nausea, incidence: 35%
[4]; [10]
  Withdrawals for side effects (severe nausea or neurologic), cases: 2 cases
  Withdrawals for side effects (severe nausea or neurologic), incidence: 8%
T4; D1mth
  T4 /mm^3, mean variation (%) in comparison with D0: +20.5%
T4; D2mth
  T4 /mm^3, mean variation (%) in comparison with D0: +31.7%
T4; D3mth
  T4 /mm^3, mean variation (%) in comparison with D0: +55.2%
T4; D4mth
  T4 /mm^3, mean variation (%) in comparison with D0: +74.8%
T4; D5mth
  T4 /mm^3, mean variation (%) in comparison with D0: +91.9%
T4; D6mth
  T4 /mm^3, mean variation (%) in comparison with D0: +52%
T4; D7mth
  T4 /mm^3, mean variation (%) in comparison with D0: +68.3%
Agp 24; D1mth
  Agp 24, mean variation (%) in comparison with D0: -39.4%
Agp 24; D2mth
  Agp 24, mean variation (%) in comparison with D0: -28.3%
Agp 24; D3mth
  Agp 24, mean variation (%) in comparison with D0: -26.2%
Agp 24; D4mth
  Agp 24, mean variation (%) in comparison with D0: -21.5%
Agp 24; D5mth
  Agp 24, mean variation (%) in comparison with D0: -18.7%
Agp 24; D6mth
  Agp 24, mean variation (%) in comparison with D0: -39.5%
Agp 24; D7mth
  Agp 24, mean variation (%) in comparison with D0: -25%
HIV [1]; AZT n = 52, THA n = 51
  Deaths, number: 0
  Kaposi Emergence, number: 2
  Kaposi Emergence, percent: 4%
  Opportunistic Infections, number: 3
  Opportunistic Infections, percent: 6%
HIV [1]; THA vs AZT courses
  Deaths, significance p in comparison with AZT courses: < 0.05
HIV [1]; after 6 months of treatment
  THA versus AZT course of treatment, conclusion: decrease in Agp24 levels, mortality and incidences of opportunistic infections
[2]
  Withdrawals for toxicity, number: 4
  Withdrawals for toxicity, percent: 8%
[5]; 37° C., 1 hour, read-out: 50% inhibition (Di50) of HIV 1 reverse transcriptase (converted)
  IC50: 400 µM and 504 µM
[5]; HPA 23 at 4 μg/ml
  Inhibition of HIV 1 reverse transcriptase in combination with HPA 23: synergistic effect with HPA 23
[5]; conclusions
  Inhibiting effect on reverse transcriptase: low
[5]; specificity test vs DNA polymerase, same concentrations, read-out: Di50 with respect to the reverse transcriptase
  IC50: 450 µM
[6]
  IC50: 1000 µM
CEM cells
  Dose dependence of protective effect in CEM cultures: dose-dependent
CEM cells; 1 μM THA
  Proliferation of HIV 1 infected CEM cultures: viral infection inhibits the proliferation
CEM cells; 5 μM THA
  Proliferation of HIV 1 infected CEM cultures: the cells multiply up to the 16th. day and then decline to be destroyed like the previous cultures right up to the 28th day
CEM cells; 10 μM THA
  Proliferation of HIV 1 infected CEM cultures: the cultures continue to proliferate right up to the 28th day
CEM cells; at the 5 μM and more particularly at the 10 μM level
  Protection of CEM cultures against lytic effect of HIV virus: protects CEM cultures against the lytic effect of the HIV virus
[7]
  Hepatotoxicity with purified sources of Tacrine: hepatotoxicity can be avoided by utilizing purified sources of Tacrine
HIV 1 virus
  Viral replication with respect to control cultures: viral replication persists although significantly diminished
[8]
  Hepatotoxicity on long term administration: long term administration of Tacrine is not practical because of hepatotoxicity

## O=C(O)P(=O)(O)O [phosphonoformate]
[5]; 50% inhibition (Di50) of HIV 1 reverse transcriptase, 37° C., 1 hour
  IC50: 1 µM
